Measured values as given in PMC6008465 (British Journal of Cancer, 2018).
Marks after values point to notes of the source that are not given here.

Assay: Part A pharmacokinetics (plasma and urine, noncompartmental analysis)
Type: in vivo, human
Method: In Part A, blood was collected on Cycle 1, Days 1 and 15 at specified intervals prior to, during, and postinfusion (5 min–8 h), and on Days 2, 3, 16, and 17 (24 and 48 h postinfusion). Urine was collected on Cycle 1, Day 1 preinfusion, at 0–8 h, and 8–24 h. In Part B, blood was collected on Cycle 1, Day 1, prior to, during, and at 1–24 h postinfusion. Pharmacokinetic parameters were calculated using noncompartmental analysis.

[1] = Cycle 1 Day 1, 160 mg/m^2 (n=3)
[2] = Cycle 1 Day 1, 320 mg/m^2 (n=7)
[3] = Cycle 1 Day 1, 400 mg/m^2 (n=1)
[4] = Cycle 1 Day 1, 480 mg/m^2 (n=4)
[5] = Cycle 1 Day 15, 20 mg/m^2 (n=3)
[6] = Cycle 1 Day 15, 40 mg/m^2 (n=3)
[7] = Cycle 1 Day 15, 80 mg/m^2 (n=3)
[8] = Cycle 1 Day 15, 160 mg/m^2 (n=3)
[9] = Cycle 1 Day 15, 320 mg/m^2 (n=6)
[10] = Cycle 1 Day 15, 400 mg/m^2 (n=1)
[11] = Cycle 1 Day 15, 480 mg/m^2 (n=4)

CCNc1cc(O)c2c(c1)/C=C/C[C@H](O)[C@H](O)C(=O)/C=C\[C@@H](C)[C@H](C)OC2=O [E6201, (3S,4R,5Z,8S,9S,11E)-14-(ethylamino)-8,9,16-trihydroxy-3,4-dimethyl-3,4,9,19-tetrahydro-1H-2-benzoxacyclotetradecine-1,7 (8H)-dione]
CLR (renal clearance), mean (%CV) [1]: 89.7 (299) mL/h
Cmax, mean (%CV) [1]: 2740 (51) ng/mL
Tmax, median (range) [1]: 0.5 (0.25–0.5) h
Vss, mean (%CV) [1]: 216 (55) L
fe (fraction of drug excreted in urine), mean (%CV) [1]: 0.0567 (186) %
t½, mean [1]: 3.98 (--) h
AUC(0-t), mean (%CV) [2]: 10400 (26) ng·h/mL
CL, mean (%CV) [2]: 57.2 (22) L/h
CLR (renal clearance), mean (%CV) [2]: 60.0 (659) mL/h
Cmax, mean (%CV) [2]: 14800 (73) ng/mL
Tmax, median (range) [2]: 0.25 (0.25–0.5) h
Vss, mean (%CV) [2]: 89.1 (36) L
fe (fraction of drug excreted in urine), mean (%CV) [2]: 0.109 (56) %
t½, mean [2]: 4.00 (--) h
AUC(0-t), mean (%CV) [3]: 13500 (--) ng·h/mL
CL, mean (%CV) [3]: 52.8 (--) L/h
CLR (renal clearance), mean (%CV) [3]: 111 (--) mL/h
Cmax, mean (%CV) [3]: 19500 (--) ng/mL
Tmax, median (range) [3]: 0.25 (0.25–0.25) h
Vss, mean (%CV) [3]: 80.1 (---) L
fe (fraction of drug excreted in urine), mean (%CV) [3]: 0.21 (--) %
t½, mean [3]: 6.50 (--) h
AUC(0-t), mean (%CV) [4]: 10200 (56) ng·h/mL
CL, mean (%CV) [4]: 101 (44) L/h
CLR (renal clearance), mean (%CV) [4]: 137 (128) mL/h
Cmax, mean (%CV) [4]: 8070 (55) ng/mL
Tmax, median (range) [4]: 0.375 (0.25–0.5) h
Vss, mean (%CV) [4]: 275 (42) L
fe (fraction of drug excreted in urine), mean (%CV) [4]: 0.143 (96) %
t½, mean [4]: 5.97 (--) h
AUC(0-t), mean (%CV) [5]: 1420 (250) ng·h/mL
Cmax, mean (%CV) [5]: 895 (228) ng/mL
Tmax, median (range) [5]: 0.5 (0.25–0.5) h
CL, mean (%CV) (Cycle 1 Day 15, 20 mg/m^2, n=1): 184^c (--) L/h
Vss, mean (%CV) (Cycle 1 Day 15, 20 mg/m^2, n=1): 324^ c (--) L
t½, mean (Cycle 1 Day 15, 20 mg/m^2, n=1): 1.58^c (--) h
AUC(0-t), mean (%CV) [6]: 2090 (169) ng·h/mL
Cmax, mean (%CV) [6]: 767 (78) ng/mL
Tmax, median (range) [6]: 0.5 (0.25–0.5) h
t½, mean (Cycle 1 Day 15, 40 mg/m^2, n=2): 1.88^ b (--) h
Vss, mean (%CV) (Cycle 1 Day 15, 40 mg/m^2, n=2, %CV 27): 115^b (27) L
CL, mean (%CV) (Cycle 1 Day 15, 40 mg/m^2, n=2, %CV 47): 91^b (47) L/h
AUC(0-t), mean (%CV) [7]: 2540 (66) ng·h/mL
Cmax, mean (%CV) [7]: 2590 (154) ng/mL
Tmax, median (range) [7]: 0.25 (0.25–0.5) h
t½, mean [7]: 5.55 (--) h
CL, mean (%CV) (Cycle 1 Day 15, 80 mg/m^2, n=2, %CV 67): 76.2^ b (67) L/h
Vss, mean (%CV) (Cycle 1 Day 15, 80 mg/m^2, n=2, %CV 146): 148^ b (146) L
AUC(0-t), mean (%CV) [8]: 4300 (32) ng·h/mL
CL, mean (%CV) [8]: 71.2 (18) L/h
Cmax, mean (%CV) [8]: 5430 (120) ng/mL
Tmax, median (range) [8]: 0.25 (0.25–0.5) h
Vss, mean (%CV) [8]: 110 (74) L
t½, mean [8]: 4.20 (--) h
AUC(0-t), mean (%CV) [9]: 11100 (13) ng·h/mL
CL, mean (%CV) [9]: 49.8 (18) L/h
Cmax, mean (%CV) [9]: 18000 (64) ng/mL
Tmax, median (range) [9]: 0.25 (0.25–0.5) h
Vss, mean (%CV) [9]: 111 (69) L
t½, mean [9]: 6.83 (--) h
AUC(0-t), mean (%CV) [10]: 10500 (--) ng·h/mL
Cmax, mean (%CV) [10]: 21600 (--) ng/mL
Tmax, median (range) [10]: 0.25 (0.25–0.25) h
AUC(0-t), mean (%CV) [11]: 11300 (73) ng·h/mL
CL, mean (%CV) [11]: 82 (38) L/h
Cmax, mean (%CV) [11]: 12200 (88) ng/mL
Tmax, median (range) [11]: 0.375 (0.25–0.5) h
Vss, mean (%CV) [11]: 217 (84) L
t½, mean [11]: 4.78 (--) h
Accumulation on multiple dosing (Day 15 vs Day 1, once-weekly dosing): Lack of E6201 accumulation
Mean clearance (CL), range over dose groups (Part A): 49.8 to 184 L/h
Renal clearance (CLR), range over dose groups (Part A): 1.65 to 137 mL/h
Time of peak E6201 concentration (mid-to-end of infusion) (Part A, 30-min IV infusion): 0.25 to 0.5 h
